Laboratory results from patent US20240059689A1, “PURINE DERIVATIVES AS ANTICANCER AGENTS” (Tango Therapeutics, Inc., priority 2021, published 2024).

Assays:
[1] = system: HCC1954; experiment: Viability assay, BRCA1 WT cell line HCC1954; type: cell-based; settings: Homo sapiens, HCC1954, viability, read-out: HCC1954 rel IC50
Excerpt: (§1) Table 1 also indicates IC50 values in a viability assay for a non-isogenic pair of BRCA1 mutant (column 5-MDA-MB-436) and BRCA1 WT (column 6—HCC1954) cell lines. These values indicate the effect of treatment with compound on cell survival.

[2] = system: monoubiquitinated PCNA; experiment: AlphaLISA assay measuring monoubiquitinated PCNA in MDA-MB-436; type: cell-based; settings: Homo sapiens, MDA-MB-436, monoubiquitinated PCNA, read-out: Alpha Lisa IC50
Excerpt: Table 1 also indicates IC50 values for exemplary compounds in an AlphaLISA assay measuring monoubiquitinated PCNA in a BRCA1 mutant cell line (MDA-MB-436; column 7).

[3] = system: MDA-MB-436; experiment: Viability assay, BRCA1 mutant cell line MDA-MB-436; type: cell-based; settings: Homo sapiens, MDA-MB-436, viability, BRCA1 mutant MDA-MB-436; read-out: MDA-MB-436 rel IC50
Excerpt: as §1

[4] = target: USP1-UAF1 (Homo sapiens, UniProt O94782); experiment: Ubiquitin Rhodamine assay of USP1-UAF1 activity; type: biochemical
Procedure: Certain compounds of the disclosure were assessed for USP1-UAF1 activity in a Ubiquitin Rhodamine assay as described in Biology Example 1.

Sequence of USP1-UAF1 (O94782 whole entry): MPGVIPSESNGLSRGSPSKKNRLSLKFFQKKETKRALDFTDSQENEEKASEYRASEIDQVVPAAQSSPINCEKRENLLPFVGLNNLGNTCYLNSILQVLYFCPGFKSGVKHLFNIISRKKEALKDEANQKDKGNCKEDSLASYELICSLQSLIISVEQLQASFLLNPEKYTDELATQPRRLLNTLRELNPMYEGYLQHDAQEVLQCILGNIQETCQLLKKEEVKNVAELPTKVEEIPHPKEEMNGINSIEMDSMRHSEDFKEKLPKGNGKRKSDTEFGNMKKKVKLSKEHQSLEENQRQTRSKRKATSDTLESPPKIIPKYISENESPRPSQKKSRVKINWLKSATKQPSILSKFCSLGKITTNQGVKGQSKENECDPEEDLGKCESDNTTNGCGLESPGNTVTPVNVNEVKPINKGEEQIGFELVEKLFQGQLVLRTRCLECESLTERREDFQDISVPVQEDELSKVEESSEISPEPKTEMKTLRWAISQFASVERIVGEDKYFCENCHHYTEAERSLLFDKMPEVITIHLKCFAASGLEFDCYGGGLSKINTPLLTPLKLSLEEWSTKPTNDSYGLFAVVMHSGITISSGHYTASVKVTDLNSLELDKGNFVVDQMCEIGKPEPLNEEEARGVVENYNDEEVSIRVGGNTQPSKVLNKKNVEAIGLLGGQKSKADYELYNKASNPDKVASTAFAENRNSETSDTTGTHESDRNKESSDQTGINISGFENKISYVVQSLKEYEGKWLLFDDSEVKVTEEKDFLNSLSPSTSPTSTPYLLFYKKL
Sequence of USP1-UAF1 (Q8TAF3 whole entry partner): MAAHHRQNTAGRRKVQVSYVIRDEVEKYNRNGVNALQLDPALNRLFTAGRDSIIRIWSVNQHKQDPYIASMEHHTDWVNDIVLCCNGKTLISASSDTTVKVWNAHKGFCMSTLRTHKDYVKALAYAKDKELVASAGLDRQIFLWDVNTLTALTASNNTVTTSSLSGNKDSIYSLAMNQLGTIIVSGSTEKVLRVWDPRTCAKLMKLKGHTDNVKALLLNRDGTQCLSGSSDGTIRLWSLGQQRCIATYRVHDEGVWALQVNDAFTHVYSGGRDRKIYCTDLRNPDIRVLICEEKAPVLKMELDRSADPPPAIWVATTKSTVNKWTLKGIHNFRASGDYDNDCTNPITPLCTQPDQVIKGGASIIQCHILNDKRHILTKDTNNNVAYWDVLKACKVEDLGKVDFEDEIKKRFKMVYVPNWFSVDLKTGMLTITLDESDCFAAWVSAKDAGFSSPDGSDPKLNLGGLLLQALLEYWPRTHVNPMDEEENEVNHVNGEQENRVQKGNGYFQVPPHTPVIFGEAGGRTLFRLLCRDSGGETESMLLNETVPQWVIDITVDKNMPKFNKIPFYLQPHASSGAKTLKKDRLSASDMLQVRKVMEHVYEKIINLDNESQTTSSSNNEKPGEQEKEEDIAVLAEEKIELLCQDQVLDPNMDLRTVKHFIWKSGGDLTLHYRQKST

| IC50 [1] | IC50 [2] | IC50 [3] | IC50 [4] | SMILES |
| --- | --- | --- | --- | --- |
| ≥ 10000 nM | < 100 nM | < 100 nM | < 30 nM | CC(C)c1ccccc1-c1ncc2c(n1)n(Cc1ccc(-c3nc(C(F)(F)F)cn3C)cc1)c(=N)n2C [Example B-2, 2-(2-isopropylphenyl)-7-methyl-9-(4-(1-methyl-4-(trifluoromethyl)-1H-imidazol-2-yl)benzyl)-7H-purin-8(9H)-imine] |
| 250 to 10000 nM | 250 to 10000 nM | 250 to 10000 nM | 100 to 10000 nM | Cn1cc(C(F)(F)F)nc1-c1ccc(Cn2c(=N)n(C)c3cnc(-c4ccccc4)nc32)cc1 [Example B-3, 7-methyl-9-(4-(1-methyl-4-(trifluoromethyl)-1H-imidazol-2-yl)benzyl)-2-phenyl-7,9-dihydro-8H-purin-8-imine] |
| ≥ 10000 nM | < 100 nM | < 100 nM | < 30 nM | C=C(C)c1ccccc1-c1ncc2c(n1)n(Cc1ccc(-c3nc(C(F)(F)F)cn3C)cc1)c(=N)n2C [Example B-4, 7-methyl-9-(4-(1-methyl-4-(trifluoromethyl)-1H-imidazol-2-yl)benzyl)-2-(2-(prop-1-en-2-yl)phenyl)-7,9-dihydro-8H-purin-8-imine] |
| 250 to 10000 nM | 100 to 250 nM | 100 to 250 nM | < 30 nM | Cn1cc(C(F)(F)F)nc1-c1ccc(Cn2c(=N)n(C)c3cnc(-c4c(Cl)cccc4Cl)nc32)cc1 [Example B-5, 2-(2,6-dichlorophenyl)-7-methyl-9-(4-(1-methyl-4-(trifluoromethyl)-1H-imidazol-2-yl)benzyl)-7,9-dihydro-8H-purin-8-imine] |
| ≥ 10000 nM | 100 to 250 nM | 100 to 250 nM | 30 to 100 nM | Cn1cc(C(F)(F)F)nc1-c1ccc(Cn2c(=N)n(C)c3cnc(-c4ccccc4Cl)nc32)cc1 [Example B-8, 2-(2-chlorophenyl)-7-methyl-9-(4-(1-methyl-4-(trifluoromethyl)-1H-imidazol-2-yl)benzyl)-7,9-dihydro-8H-purin-8-imine] |
| 250 to 10000 nM | < 100 nM | < 100 nM | < 30 nM | CC(C)c1c(F)cccc1-c1ncc2c(n1)n(Cc1ccc(-c3nc(C(F)(F)F)cn3C)cc1)c(=N)n2C [Example B-9, 2-(3-fluoro-2-isopropylphenyl)-7-methyl-9-(4-(1-methyl-4-(trifluoromethyl)-1H-imidazol-2-yl)benzyl)-7,9-dihydro-8H-purin-8-imine] |
| 250 to 10000 nM | 100 to 250 nM | 100 to 250 nM | < 30 nM | CC(C)c1cc(F)ccc1-c1ncc2c(n1)n(Cc1ccc(-c3nc(C(F)(F)F)cn3C)cc1)c(=N)n2C [Example B-10, 2-(4-fluoro-2-isopropylphenyl)-7-methyl-9-(4-(1-methyl-4-(trifluoromethyl)-1H-imidazol-2-yl)benzyl)-7,9-dihydro-8H-purin-8-imine] |
| 250 to 10000 nM | < 100 nM | 100 to 250 nM | < 30 nM | CC(C)c1ccc(F)cc1-c1ncc2c(n1)n(Cc1ccc(-c3nc(C(F)(F)F)cn3C)cc1)c(=N)n2C [Example B-11, 2-(5-fluoro-2-isopropylphenyl)-7-methyl-9-(4-(1-methyl-4-(trifluoromethyl)-1H-imidazol-2-yl)benzyl)-7,9-dihydro-8H-purin-8-imine] |
| 250 to 10000 nM | 250 to 10000 nM | 250 to 10000 nM | 30 to 100 nM | Cn1cc(C(F)(F)F)nc1-c1ccc(Cn2c(=N)n(C)c3cnc(-c4ccc(F)cc4OC(F)F)nc32)cc1 [Example T-001, 2-[2-(difluoromethoxy)-4-fluoro-phenyl]-7-methyl-9-[[4-[1-methyl-4-(trifluoromethyl)imidazol-2-yl]phenyl]methyl]purin-8-imine] |
| 250 to 10000 nM | 250 to 10000 nM | 100 to 250 nM | 30 to 100 nM | Cc1cccc(-c2ncc3c(n2)n(Cc2ccc(-c4nc(C(F)(F)F)cn4C)cc2)c(=N)n3C)c1C(C)C [Example T-002, 2-(2-isopropyl-3-methyl-phenyl)-7-methyl-9-[[4-[1-methyl-4-(trifluoromethyl)imidazol-2-yl]phenyl]methyl]purin-8-imine] |
| 250 to 10000 nM | < 100 nM | < 100 nM | < 30 nM | CC(C)c1ccccc1-c1ncc2c(n1)n(C1(c3ccc(-c4nc(C(F)(F)F)cn4C)cc3)CC1)c(=N)n2C [Example T-003, 2-(2-isopropylphenyl)-7-methyl-9-[1-[4-[1-methyl-4-(trifluoromethyl)imidazol-2-yl]phenyl]cyclopropyl]purin-8-imine] |
| 250 to 10000 nM | 100 to 250 nM | 250 to 10000 nM | 30 to 100 nM | COc1cc(C(F)(F)F)nn1-c1ccc(Cn2c(=N)n(C)c3cnc(-c4ccccc4C(F)(F)F)nc32)cc1 [Example T-004] |
| ≥ 10000 nM | 100 to 250 nM | 100 to 250 nM | 30 to 100 nM | COc1nccc(C#N)c1-c1ncc2c(n1)n(Cc1ccc(-c3nc(C(F)(F)F)cn3C)cc1)c(=N)n2C [Example T-008] |
| ≥ 10000 nM | 100 to 250 nM | 250 to 10000 nM | 30 to 100 nM | Cn1cc(C(F)(F)F)nc1-c1ccc(Cn2c(=N)n(C)c3cnc(-c4cccnc4C4CC4)nc32)cc1 [Example T-009, 2-(2-cyclopropyl-3-pyridyl)-7-methyl-9-[[4-[1-methyl-4-(trifluoromethyl)imidazol-2-yl]phenyl]methyl]purin-8-imine] |
| 250 to 10000 nM | 250 to 10000 nM | 250 to 10000 nM | 30 to 100 nM | Cn1cc(C(F)(F)F)nc1-c1ccc(Cn2c(=N)n(C)c3cnc(-c4cccc5c4OC(F)(F)O5)nc32)cc1 [Example T-011, 2-(2,2-difluoro-1,3-benzodioxol-4-yl)-7-methyl-9-[[4-[1-methyl-4-(trifluoromethyl)imidazol-2-yl]phenyl]methyl]purin-8-imine] |
| ≥ 10000 nM | 250 to 10000 nM | 250 to 10000 nM | 100 to 10000 nM | COc1ncc(F)cc1-c1ncc2c(n1)n(Cc1ccc(-c3nc(C(F)(F)F)cn3C)cc1)c(=N)n2C [Example T-013] |
| ≥ 10000 nM | 100 to 250 nM | 100 to 250 nM | < 30 nM | Cc1cccc(C(C)C)c1-c1ncc2c(n1)n(Cc1ccc(-c3nc(C(F)(F)F)cn3C)cc1)c(=N)n2C [Example T-015, 2-(2-isopropyl-6-methyl-phenyl)-7-methyl-9-[[4-[1-methyl-4-(trifluoromethyl)imidazol-2-yl]phenyl]methyl]purin-8-imine] |
| ≥ 10000 nM | < 100 nM | < 100 nM | < 30 nM | COCCn1c(=N)n(Cc2ccc(-c3nc(C(F)(F)F)cn3C)cc2)c2nc(-c3ccccc3C(C)C)ncc21 [Example T-016] |
| 250 to 10000 nM | 250 to 10000 nM | 250 to 10000 nM | 30 to 100 nM | Cc1ccc(C(C)C)c(-c2ncc3c(n2)n(Cc2ccc(-c4nc(C(F)(F)F)cn4C)cc2)c(=N)n3C)c1 [Example T-018, 2-(2-isopropyl-5-methyl-phenyl)-7-methyl-9-[[4-[1-methyl-4-(trifluoromethyl)imidazol-2-yl]phenyl]methyl]purin-8-imine] |
| ≥ 10000 nM | < 100 nM | 100 to 250 nM | 100 to 10000 nM | COc1ncnc(C2CC2)c1-c1ncc2c(n1)n(Cc1ccc(-c3nc(C(F)(F)F)cn3C)cc1)c(=N)n2C [Example T-019, 2-(4-cyclopropyl-6-methoxy-pyrimidin-5-yl)-7-methyl-9-[[4-[1-methyl-4-(trifluoromethyl)imidazol-2-yl]phenyl]methyl]purin-8-imine] |
| 250 to 10000 nM | 250 to 10000 nM | 250 to 10000 nM | 100 to 10000 nM | COc1cc(C)n(-c2ccc(Cn3c(=N)n(C)c4cnc(-c5ccccc5C5CC5)nc43)cc2)n1 [Example T-020] |
| ≥ 10000 nM | < 100 nM | 100 to 250 nM | 30 to 100 nM | Cn1cc(C(F)(F)F)nc1-c1ccc(Cn2c(=N)n(C)c3cnc(-c4ccccc4OC(F)F)nc32)cc1 [Example T-021, 2-[2-(difluoromethoxy)phenyl]-7-methyl-9-[[4-[1-methyl-4-(trifluoromethyl)imidazol-2-yl]phenyl]methyl]purin-8-imine] |
| ≥ 10000 nM | 250 to 10000 nM | 250 to 10000 nM | 100 to 10000 nM | Cn1cc(C(F)(F)F)nc1-c1ccc(Cn2c(=N)n(C)c3cnc(-c4cccnc4N4CC(F)C4)nc32)cc1 [Example T-023] |
| 250 to 10000 nM | 250 to 10000 nM | 250 to 10000 nM | 30 to 100 nM | Cn1cc(C(F)(F)F)nc1-c1ccc(Cn2c(=N)n(C)c3cnc(-c4cccc(F)c4OC(F)F)nc32)cc1 [Example T-027, 2-[2-(difluoromethoxy)-3-fluoro-phenyl]-7-methyl-9-[[4-[1-methyl-4-(trifluoromethyl)imidazol-2-yl]phenyl]methyl]purin-8-imine] |
| 250 to 10000 nM | 100 to 250 nM | 100 to 250 nM | 100 to 10000 nM | COc1cc(-c2nc(C(F)(F)F)cn2C)ccc1Cn1c(=N)n(C)c2cnc(-c3ccccc3C(F)(F)F)nc21 [Example T-029] |
| 250 to 10000 nM | < 100 nM | < 100 nM | 100 to 10000 nM | CC(C)c1ccccc1-c1ncc2c(n1)n(C[C@H]1CC[C@H](c3nc(C(F)(F)F)cn3C)CC1)c(=N)n2C [Example T-030] |
| ≥ 10000 nM | 250 to 10000 nM | 250 to 10000 nM | 100 to 10000 nM | CC(C)n1cc(C(F)(F)F)nc1-c1ccc(Cn2c(=N)n(C)c3cnc(-c4cccnc4OCC(F)(F)F)nc32)cc1 [Example T-031] |
